Results from patent US12173018B2, “Penicillin-binding protein inhibitors” (priority 2018, dated 2024).
Converted amounts (≈) assume the structure as drawn. Where two headings read alike, the source gives them in different places.

Assays:
[1] = system: N. gonorrhoeae ATCC 49226; assay: Liquid broth MIC, N. gonorrhoeae ATCC 49226; assay type: cell-based; details: Neisseria gonorrhoeae, ATCC49226; N. gonorrhoeae ATCC 49226, liquid broth; read-out: Minimum Inhibitory Concentration, N. gonorrhoeae ATCC 49226
Summary of the method: (§1)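 MIC taken by eye as the lowest well lacking growth after 40-42 h at 36° C under 5% CO2. Compounds were 2-fold serially diluted; the starting inoculum of 5×10^5 CFU/mL came from direct colony suspensions grown on Kellogg's-supplemented GC agar.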

N. gonorrhoeae WHO F = assay: Liquid broth MIC, N. gonorrhoeae WHO F; assay type: cell-based; details: Neisseria gonorrhoeae; N. gonorrhoeae WHO F, liquid broth; read-out: Minimum Inhibitory Concentration, N. gonorrhoeae WHO F
Summary of the method: as §1

N. gonorrhoeae FA19 = assay: Liquid broth MIC, N. gonorrhoeae FA19; assay type: cell-based; details: Neisseria gonorrhoeae; N. gonorrhoeae FA19, liquid broth; read-out: Minimum Inhibitory Concentration, N. gonorrhoeae FA19
Summary of the method: as §1

E. coli AG100A = assay: microbe, parasite or virus in culture; assay type: cell-based; details: Escherichia coli, read-out: MIC E. coli AG100A
Summary of the method: (§2)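 CLSI broth microdilution in cation-supplemented Mueller-Hinton broth; 2-fold compound dilutions inoculated at 5×10^5 CFU/mL from a 3-5 h log-phase culture. Plates incubated 16-20 hours at 37° C; MIC read visually as lowest concentration with no growth.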

K. pneumoniae SI-117 = assay: microbe, parasite or virus in culture; assay type: cell-based; details: Klebsiella pneumoniae, SI117, read-out: MIC K. pneumoniae SI-117
Summary of the method: as §2

E. coli D22 = assay: microbe, parasite or virus in culture; assay type: cell-based; details: Escherichia coli
Summary of the method: as §2

K. pneumoniae UMM = assay: microbe, parasite or virus in culture; assay type: cell-based; details: Klebsiella pneumoniae, read-out: MIC K. pneumoniae UMM
Summary of the method: as §2

E. coli 901C = assay: microbe, parasite or virus in culture; assay type: cell-based; details: Escherichia coli, read-out: MIC E. coli 901C
Summary of the method: as §2

E. coli AG100 = assay: Broth microdilution MIC, E. coli AG100 (wild-type parent); assay type: cell-based; details: Escherichia coli
Summary of the method: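 Broth microdilution in cation-supplemented Mueller-Hinton broth, 2-fold serial compound dilutions, inoculum 5×10^5 CFU/mL from 3-5 h log culture.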

K. pneumoniae 848844 = assay: microbe, parasite or virus in culture; assay type: cell-based, Klebsiella pneumoniae
Summary of the method: as §2

N. gonorrhoeae FA1090 = assay: Liquid broth MIC, N. gonorrhoeae FA1090; assay type: cell-based; details: Neisseria gonorrhoeae; N. gonorrhoeae FA1090, liquid broth; read-out: Minimum Inhibitory Concentration, N. gonorrhoeae FA1090
Summary of the method: as §1

E. coli ATCC 25922 = assay: Broth microdilution MIC, E. coli ATCC 25922; assay type: cell-based; details: Escherichia coli, ATCC25922; E. coli ATCC 25922, broth microdilution; read-out: MIC E. coli 25922
Summary of the method: as §2

[2] = hyper-permeable E. coli D22, broth microdilution, read-out: MIC E. coli D22
[3] = K. pneumoniae UMM producing SHV-5 and KPC-2
[4] = hyper-permeable E. coli 901C, broth microdilution
[5] = wild-type parent E. coli AG100, broth microdilution, read-out: MIC E. coli AG100
[6] = Klebsiella pneumoniae, K. pneumoniae 848844 producing SHV-11 and KPC-2, read-out: MIC K. pneumoniae 848844

| Compound | MIC [1] [µg/mL] | MIC (N. gonorrhoeae WHO F) [µg/mL] | MIC (N. gonorrhoeae FA19) [µg/mL] | MIC (E. coli AG100A) [µg/mL] | MIC (K. pneumoniae SI-117) [µg/mL] | MIC (E. coli D22; [2]) [µg/mL] | MIC (K. pneumoniae UMM; [3]) [µg/mL] | MIC (E. coli 901C; [4]) [µg/mL] | MIC (E. coli AG100; [5]) [µg/mL] | MIC (K. pneumoniae 848844; [6]) [µg/mL] | MIC (N. gonorrhoeae FA1090) [µg/mL] | MIC (E. coli ATCC 25922) [µg/mL] | MIC (E. coli D22; D22, read-out: MIC E. coli D22) [µg/mL] | MIC (K. pneumoniae UMM) [µg/mL] | MIC (E. coli 901C; 901C) [µg/mL] | MIC (E. coli AG100; AG100, read-out: MIC E. coli AG100) [µg/mL] | MIC (K. pneumoniae 848844; Klebsiella pneumoniae, 848844, read-out: MIC K. pneumoniae 848844) [µg/mL] |
| --- | --- | --- | --- | --- | --- | --- | --- | --- | --- | --- | --- | --- | --- | --- | --- | --- | --- |
| CS(=O)(=O)NCCN1CCN(C(=O)NC(C(=O)N[C@H]2Cc3cccc(C(=O)O)c3OB2O)c2ccc(O)c(O)c2Cl)C(=O)C1=O (stereo partly drawn) [Example 229, (3R)-3-(2-(2-chloro-3,4-dihydroxyphenyl)-2-(4-(2-(methylsulfonamido)ethyl)-2,3-dioxopiperazine-1-carboxamido)acetamido)-2-hydroxy-3,4-dihydro-2H-benzo[e][1,2]oxaborinine-8-carboxylic acid] | > 64 | 4 to 8 (≈ 5.99 to 12 µM) | > 64 | 0.5 to 1 | 8 to 16 | 2 to 4 | 8 to 16 | 0.5 to 1 | 2 to 4 | 2 to 4 | 4 to 8 (≈ 5.99 to 12 µM) | 8 to 16 |  |  |  |  |  |
| CCN1CCN(C(=O)NC(C(=O)N[C@H]2Cc3cccc(C(=O)O)c3OB2O)c2ccc(B(O)O)cc2)C(=O)C1=O (stereo partly drawn) [Example 112] | 1 to 2 (≈ 1.81 to 3.62 µM) | < 0.125 | 1 to 2 (≈ 1.81 to 3.62 µM) | 2 to 4 | > 128 |  |  |  |  |  | < 0.125 | 32 to 64 | 2 to 4 | 32 to 64 | < 0.25 | 32 to 64 | > 128 |
| CCN1CCN(C(=O)NC(C(=O)N[C@H]2Cc3ccc(Cl)c(C(=O)O)c3OB2O)c2ncc(O)cc2F)C(=O)C1=O (stereo partly drawn) [Example 216, (3R)-7-chloro-3-(2-(4-ethyl-2,3-dioxopiperazine-1-carboxamido)-2-(3-fluoro-5-hydroxypyridin-2-yl)acetamido)-2-hydroxy-3,4-dihydro-2H-benzo[e][1,2]oxaborinine-8-carboxylic acid] | 1 to 2 (≈ 1.73 to 3.46 µM) | < 0.125 | 1 to 2 (≈ 1.73 to 3.46 µM) | 8 to 16 | 32 to 64 | 2 to 4 | 32 to 64 | 0.5 to 1 | 32 to 64 | 32 to 64 | 0.25 to 0.5 (≈ 0.433 to 0.865 µM) | 32 to 64 |  |  |  |  |  |
| CNCCN1CCN(C(=O)NC(C(=O)N[C@H]2Cc3cccc(C(=O)O)c3OB2O)c2ccc(O)c(O)c2Cl)C(=O)C1=O (stereo partly drawn) [Example 239, (3R)-3-(2-(2-chloro-3,4-dihydroxyphenyl)-2-(4-(2-(methylamino)ethyl)-2,3-dioxopiperazine-1-carboxamido)acetamido)-2-hydroxy-3,4-dihydro-2H-benzo[e][1,2]oxaborinine-8-carboxylic acid] | > 64 | 4 to 8 (≈ 6.62 to 13.2 µM) | > 64 | 2 to 4 | > 128 | 2 to 4 | 2 to 4 | 2 to 4 | 2 to 4 | 2 to 4 | 4 to 8 (≈ 6.62 to 13.2 µM) | 32 to 64 |  |  |  |  |  |
| O=C(O)c1cccc2c1OB(O)[C@@H](NC(=O)C(NC(=O)N1CCN(CCF)C(=O)C1=O)c1ccc(B(O)O)cc1)C2 (stereo partly drawn) [Example 113, (3R)-3-(2-(4-boronophenyl)-2-(4-(2-fluoroethyl)-2,3-dioxopiperazine-1-carboxamido)acetamido)-2-hydroxy-3,4-dihydro-2H-benzo[e][1,2]oxaborinine-8-carboxylic acid] | 1 to 2 (≈ 1.75 to 3.51 µM) | < 0.125 | 1 to 2 (≈ 1.75 to 3.51 µM) | 2 to 4 | > 128 | 8 to 16 | 32 to 64 | < 0.25 | 32 to 64 | > 128 | < 0.125 | 32 to 64 |  |  |  |  |  |
| CC(=O)NCCN1CCN(C(=O)NC(C(=O)N[C@H]2Cc3cccc(C(=O)O)c3OB2O)c2ccc(O)c(O)c2Cl)C(=O)C1=O (stereo partly drawn) [Example 228, (3R)-3-(2-(4-(2-acetamidoethyl)-2,3-dioxopiperazine-1-carboxamido)-2-(2-chloro-3,4-dihydroxyphenyl)acetamido)-2-hydroxy-3,4-dihydro-2H-benzo[e][1,2]oxaborinine-8-carboxylic acid] | > 64 | 4 to 8 (≈ 6.33 to 12.7 µM) | > 64 | 0.5 to 1 | 2 to 4 | 2 to 4 | 0.5 to 1 | 0.5 to 1 | 2 to 4 | 2 to 4 | 1 to 2 (≈ 1.58 to 3.17 µM) | 8 to 16 |  |  |  |  |  |
| NCCCN1CCN(C(=O)N[C@@H](C(=O)N[C@H]2Cc3ccc(F)c(C(=O)O)c3OB2O)c2ccc(O)c(O)c2Cl)C(=O)C1=O [Example 236, (R)-3-((R)-2-(4-(3-aminopropyl)-2,3-dioxopiperazine-1-carboxamido)-2-(2-chloro-3,4-dihydroxyphenyl)acetamido)-7-fluoro-2-hydroxy-3,4-dihydro-2H-benzo[e][1,2]oxaborinine-8-carboxylic acid] | 16 to 32 (≈ 25.7 to 51.5 µM) | 1 to 2 (≈ 1.61 to 3.22 µM) | 4 to 8 (≈ 6.43 to 12.9 µM) | 0.5 to 1 | 0.5 to 1 | 0.5 to 1 | 0.5 to 1 | 0.5 to 1 | 0.5 to 1 | 0.5 to 1 | 1 to 2 (≈ 1.61 to 3.22 µM) | 0.5 to 1 |  |  |  |  |  |
| CCN1CCN(C(=O)N[C@@H](C(=O)N[C@H]2Cc3cccc(C(=O)O)c3OB2O)c2ncc(O)cc2F)C(=O)C1=O [Example 177, (R)-3-((R)-2-(4-ethyl-2,3-dioxopiperazine-1-carboxamido)-2-(3-fluoro-5-hydroxypyridin-2-yl)acetamido)-2-hydroxy-3,4-dihydro-2H-benzo[e][1,2]oxaborinine-8-carboxylic acid] | 4 to 8 (≈ 7.36 to 14.7 µM) | < 0.125 | 4 to 8 (≈ 7.36 to 14.7 µM) | 0.5 to 1 | 32 to 64 | 0.5 to 1 | 8 to 16 | < 0.25 | 8 to 16 | 32 to 64 | < 0.125 | 8 to 16 |  |  |  |  |  |
| C[C@H]1CN(CCO)C(=O)C(=O)N1C(=O)NC(C(=O)N[C@H]1Cc2cccc(C(=O)O)c2OB1O)c1ccc(O)c(O)c1Cl (stereo partly drawn) [Example 224, (3R)-3-(2-(2-chloro-3,4-dihydroxyphenyl)-2-((S)-4-(2-hydroxyethyl)-6-methyl-2,3-dioxopiperazine-1-carboxamido)acetamido)-2-hydroxy-3,4-dihydro-2H-benzo[e][1,2]oxaborinine-8-carboxylic acid] | > 64 | 4 to 8 (≈ 6.61 to 13.2 µM) | > 64 | 0.5 to 1 | 2 to 4 | 2 to 4 | 2 to 4 | 0.5 to 1 | 2 to 4 | 2 to 4 | 1 to 2 (≈ 1.65 to 3.31 µM) | 2 to 4 |  |  |  |  |  |
| NCCN1CCN(C(=O)N[C@@H](C(=O)N[C@H]2Cc3ccc(F)c(C(=O)O)c3OB2O)c2ccc(O)c(O)c2Cl)C(=O)C1=O [Example 227, (R)-3-((R)-2-(4-(2-aminoethyl)-2,3-dioxopiperazine-1-carboxamido)-2-(2-chloro-3,4-dihydroxyphenyl)acetamido)-7-fluoro-2-hydroxy-3,4-dihydro-2H-benzo[e][1,2]oxaborinine-8-carboxylic acid] | 4 to 8 (≈ 6.58 to 13.2 µM) | 1 to 2 (≈ 1.65 to 3.29 µM) | 4 to 8 (≈ 6.58 to 13.2 µM) | < 0.25 | 0.5 to 1 | 0.5 to 1 | 0.5 to 1 | < 0.25 | < 0.25 | 0.5 to 1 | 1 to 2 (≈ 1.65 to 3.29 µM) | 0.5 to 1 |  |  |  |  |  |
